Measured values from patent publication US9011833B2, “Vitamin E formulations of sulfamide NS3 inhibitors” (priority 2010, dated 2015).
Converted amounts (≈) assume the structure as drawn.

Tests used:
in vivo = assay: in vivo; parameters: species or system sprague dowley rats; conditions: Sprague-Dawley, rat
[1] = Solubilization of Compound 34 in microemulsion formulation; format: physicochemical; conditions: microemulsion preconcentrate or microemulsion diluted with water
Excerpt: Microemulsion preconcentrate or diluted microemulsion with water is used. The formulation solubilizes the Compound 34 up to 15% by wt. The specific components for formulation are: […]

physchem = conditions: aqueous buffer, Compound 34 solubility

With `CC[C@@H]1C[C@]1(NC(=O)[C@@H]1C[C@@]2(CN1C(=O)[C@@H](NC(=O)[C@@H](NC(=O)[C@@H]1CCCCN1C(C)C)C1CCCCC1)C(C)(C)C)C(C)(C)C21CCC1)C(=O)NS(=O)(=O)N1CCCC1` [Compound 34, (5R,8S)-7-[(2S)-2-{[(2S)-2-cyclohexyl-2-({[(2S)-1-isopropylpiperidin-2-yl]carbonyl}amino)acetyl]a-mino}-3,3-dimethylbutanoyl]-N-{(1R,2R)-2-ethyl-1-[(pyrrolidin-1-ylsulfonyl)carbamoyl]cyclo-propyl}-10,10-dimethyl-7-azadispiro[3.0.4.1]decane-8-carboxamide] the bioavailability (in vivo) was 80 to 95%, the “solubilized in microemulsion formulation” value [1] was “up to 15 % by wt” and the solubility (physchem) was 30 µg/mL (≈ 35 µM).
